From paper PMC6384738, “Structure-Function Studies of Polymyxin B Lipononapeptides” (Molecules, 2019)
Converted amounts (≈) assume the structure as drawn. *1 amine or outer side, *2 acyl side, *3 side chain or, on linkers, in order; H or OH if unused. Where a SMILES comes first, the peptide text is derived from it. Bridges are numbered along the chain shown (N, C = ends). [ ]: non-standard residue; d: D form. The star is where a group is joined. Biphenylcarbonyl(4'-Bu) = CCCCc1ccc(-c2ccc(C(=O)*)cc2)cc1; Benzoyl(3-Ph) = O=C(c1cccc(-c2ccccc2)c1)*; Hexanoyl(6-Ph) = O=C(CCCCCc1ccccc1)*; X1 = CCCCCC1CCC(C(=O)*)CC1; dOrn = NCCC[C@@H](N)C(=O)O; NH(2-ClPh) = Clc1ccccc1N*; dDab = NCC[C@@H](N)C(=O)O; hSer = N[C@@H](CCO)C(=O)O; Octanoyl = CCCCCCCC(=O)*; Orn = NCCC[C@H](N)C(=O)O; Dab = NCC[C@H](N)C(=O)O; CO = O=C([*:1])[*:2]

Key:
A. baumannii ATCC 19606 = assay: microbe, parasite or virus in culture; details: ATCC 19606, 18 h
Method: (§1) All compounds synthesised in this study were assessed for their minimum inhibitory concentrations (MIC, mg/L) by broth microdilution assay against five antibiotic-sensitive and resistant ATCC reference strains covering the Gram-negative ESKAPE pathogens (Escherichia coli, Klebsiella pneumoniae, A. baumannii, and P. aeruginosa) (Table 1, Table 2 and Table 3). Staphylococcus aureus was also included as a representative Gram-positive bacterial strain. […] Polymyxin B 1, colistin 2, vancomycin and gentamicin were used as positive inhibitor comparator compounds. Compounds were counter-screened against human proximal tubular epithelial cells (HK-2), using LDH release as a general indicator of cellular toxicity.

P. aeruginosa ATTC 27853 = assay: microbe, parasite or virus in culture; details: ATTC 27853, 18 h
Method: as §1

E. coli ATCC 25922 = assay: microbe, parasite or virus in culture; details: ATCC 25922, 18 h
Method: as §1

S. aureus ATCC 25923 = assay: microbe, parasite or virus in culture; details: ATCC 25923, 18 h
Method: as §1

K. pneumoniae ATCC 13833 = assay: microbe, parasite or virus in culture; details: ATCC 13833, 18 h
Method: as §1

[1] = test system: K. pneumoniae ATCC 700603; assay: microbe, parasite or virus in culture; details: ATCC 700603, 18 h
Method: as §1

K. pneumoniae BAA 2146 = assay: microbe, parasite or virus in culture; details: BAA 2146, 18 h
Method: as §1

in vitro = details: human
Method: as §1
Cytotoxicity to human kidney proximal tubular epithelial cell line, HK-2 (ATCC CRL-2190, sourced from ATCC; Manassas, VA, USA) was determined using the LDH assay as previously described. In brief, HK-2 cells were seeded as 2000 cells/well in black-walled clear bottom 384-well tissue culture treated plates (Corning, catalogue No. 3712) in DMEM/F12 medium (Gibco® 10565-042) containing 10% of Fetal Bovine Serum (FBS, Gibco® 10099-141) and incubated for 24 h at 37 °C, 5% CO2. Compounds were then added into each well with a concentration series from 300 µM to 2.3 µM in 2-fold dilutions. Colistin and polymyxin B were used as controls and tested at a final concentration range of 1 mM to 7.8 µM. The cells were incubated with the compounds for 24 h at 37 °C, 5% CO2. After the incubation, 5 µL of culture medium was added to 45 µL of LDH assay buffer (Biovision, K313-500) and incubated for 30 min at room temperature. The absorbance (ABS) was then read at 450 nm using a Polar Star Omega plate reader. The data was analysed by Prism 6 software (GraphPad Software, La Jolla, CA, USA). Results were calculated using the following equation: cytotoxicity %= (ABSsamples − ABSuntreated/ABS1%Triton X-100 − ABSuntreated) × 100.

Row | SMILES | MIC A. baumannii ATCC 19606 (A. baumannii ATCC 19606) [µg/mL] | MIC P. aeruginosa ATTC 27853 (P. aeruginosa ATTC 27853) [µg/mL] | MIC E. coli ATCC 25922 (E. coli ATCC 25922) [µg/mL] | MIC S. aureus ATCC 25923 (S. aureus ATCC 25923) [µg/mL] | MIC K. pneumoniae ATCC 13833 (K. pneumoniae ATCC 13833) [µg/mL] | MIC K. pneumoniae ATCC 700603 [1] [µg/mL] | MIC K. pneumoniae BAA 2146 (K. pneumoniae BAA 2146) [µg/mL] | CC50 at 24 h (in vitro) [µM]
1 | CCCCCCCC(=O)N[C@H](C(=O)N[C@H](CCCN)C(=O)N[C@H]1CCNC(=O)[C@H]([C@@H](C)O)NC(=O)[C@H](CCN)NC(=O)[C@H](CCN)NC(=O)[C@H](CC(C)C)NC(=O)[C@@H](Cc2ccccc2)NC(=O)[C@H](CCN)NC1=O)[C@@H](C)O [Compound 41] (Octanoyl-T[dOrn][Dab][Dab][dF]L[Dab][Dab]T; lactam 3-C) | 16 (≈ 14.5 µM) | 4 (≈ 3.63 µM) | 1 (≈ 0.906 µM) | >32 | 32 (≈ 29 µM) | 4 (≈ 3.63 µM) | 1 (≈ 0.906 µM) | > 300
2 | CCCCCCCC(=O)N[C@H](C(=O)N[C@H](CCCCN)C(=O)N[C@H]1CCNC(=O)[C@H]([C@@H](C)O)NC(=O)[C@H](CCN)NC(=O)[C@H](CCN)NC(=O)[C@H](CC(C)C)NC(=O)[C@@H](Cc2ccccc2)NC(=O)[C@H](CCN)NC1=O)[C@@H](C)O [Compound 43] (Octanoyl-T[dK][Dab][Dab][dF]L[Dab][Dab]T; lactam 3-C) | 16 (≈ 14.3 µM) | 4 (≈ 3.58 µM) | 1 (≈ 0.895 µM) | >32 | >32 | 4 (≈ 3.58 µM) | 4 (≈ 3.58 µM) | > 300
3 | CC(C)C[C@@H]1NC(=O)[C@@H](Cc2ccccc2)NC(=O)[C@H](CCN)NC(=O)[C@@H](NC(=O)[C@H](CCN)NC(=O)[C@@H](NC(=O)c2cccc(-c3ccccc3)c2)[C@@H](C)O)CCNC(=O)[C@H]([C@@H](C)O)NC(=O)[C@H](CCN)NC(=O)[C@H](CCN)NC1=O [Compound 14] ({Benzoyl(3-Ph)}-T[Dab][Dab][Dab][dF]L[Dab][Dab]T; lactam 3-C) | >32 | 2 (≈ 1.75 µM) | 8 (≈ 7 µM) | >32 | >32 | 32 (≈ 28 µM) | 16 (≈ 14 µM) | 182
4 | CCCCCCCC(=O)N[C@H](C(=O)NCC(=O)N[C@H]1CCNC(=O)[C@H]([C@@H](C)O)NC(=O)[C@H](CCN)NC(=O)[C@H](CCN)NC(=O)[C@H](CC(C)C)NC(=O)[C@@H](Cc2ccccc2)NC(=O)[C@H](CCN)NC1=O)[C@@H](C)O [Compound 49] (Octanoyl-TG[Dab][Dab][dF]L[Dab][Dab]T; lactam 3-C) | >32 | >32 | 4 (≈ 3.82 µM) | >32 | >32 | >32 | >32 | 163
5 | CCCCCCCC(=O)N[C@H](C(=O)N[C@@H](CCO)C(=O)N[C@H]1CCNC(=O)[C@H]([C@@H](C)O)NC(=O)[C@H](CCN)NC(=O)[C@H](CCN)NC(=O)[C@H](CC(C)C)NC(=O)[C@@H](Cc2ccccc2)NC(=O)[C@H](CCN)NC1=O)[C@@H](C)O [Compound 37] (Octanoyl-T[hSer][Dab][Dab][dF]L[Dab][Dab]T; lactam 3-C) | >32 | >32 | 16 (≈ 14.7 µM) | >32 | >32 | >32 | >32 | 271
6 | CC(C)C[C@@H]1NC(=O)[C@@H](Cc2ccccc2)NC(=O)[C@H](CCN)NC(=O)[C@@H](NC(=O)[C@H](CCN)NC(=O)[C@@H](NC(=O)CCCCCc2ccccc2)[C@@H](C)O)CCNC(=O)[C@H]([C@@H](C)O)NC(=O)[C@H](CCN)NC(=O)[C@H](CCN)NC1=O [Compound 13] ({Hexanoyl(6-Ph)}-T[Dab][Dab][Dab][dF]L[Dab][Dab]T; lactam 3-C) | 8 (≈ 7.03 µM) | 1 (≈ 0.879 µM) | 1 (≈ 0.879 µM) | >32 | 8 (≈ 7.03 µM) | 2 (≈ 1.76 µM) | 1 (≈ 0.879 µM) | 189
7 | CCCCCCCC(=O)N[C@H](C(=O)N[C@@H](CCN)C(=O)N[C@H]1CCCNC(=O)[C@H]([C@@H](C)O)NC(=O)[C@H](CCN)NC(=O)[C@H](CCN)NC(=O)[C@H](CC(C)C)NC(=O)[C@@H](Cc2ccccc2)NC(=O)[C@H](CCN)NC1=O)[C@@H](C)O [Compound 17] (Octanoyl-T[Dab][Orn][Dab][dF]L[Dab][Dab]T; lactam 3-C) | >32 | 2 (≈ 1.81 µM) | 2 (≈ 1.81 µM) | >32 | 32 (≈ 29 µM) | 16 (≈ 14.5 µM) | 16 (≈ 14.5 µM) | 88
8 | CCCCc1ccc(-c2ccc(C(=O)N[C@H](C(=O)N[C@H](CCN)C(=O)N[C@H]3CCNC(=O)[C@H]([C@@H](C)O)NC(=O)[C@H](CCN)NC(=O)[C@H](CCN)NC(=O)[C@H](CC(C)C)NC(=O)[C@@H](Cc4ccccc4)NC(=O)[C@H](CCN)NC3=O)[C@@H](C)O)cc2)cc1 [Compound 23] ({Biphenylcarbonyl(4'-Bu)}-T[dDab][Dab][Dab][dF]L[Dab][Dab]T; lactam 3-C) |  |  |  |  |  |  |  | 29
9 | CCCCCCCC(=O)N[C@@H](CCN)C(=O)N[C@H](C(=O)NCC(=O)N[C@H]1CCNC(=O)[C@H]([C@@H](C)O)NC(=O)[C@H](CCN)NC(=O)[C@H](CCN)NC(=O)[C@H](CC(C)C)NC(=O)[C@@H](Cc2ccccc2)NC(=O)[C@H](CCN)NC1=O)[C@@H](C)O [Compound 50] (Octanoyl-[Dab]TG[Dab][Dab][dF]L[Dab][Dab]T; lactam 4-C) |  |  |  | >32 | 0.5 (≈ 0.436 µM) |  |  | > 300
10 | CCCCCCCC(=O)N[C@@H](CCN)C(=O)N[C@H](C(=O)N[C@H](CO)C(=O)N[C@H]1CCNC(=O)[C@H]([C@@H](C)O)NC(=O)[C@H](CCN)NC(=O)[C@H](CCN)NC(=O)[C@H](CC(C)C)NC(=O)[C@@H](Cc2ccccc2)NC(=O)[C@H](CCN)NC1=O)[C@@H](C)O [Compound 34] (Octanoyl-[Dab]T[dS][Dab][Dab][dF]L[Dab][Dab]T; lactam 4-C) |  |  |  | >32 | 0.5 (≈ 0.425 µM) | 2 (≈ 1.7 µM) | 16 (≈ 13.6 µM) | 139
11 | CC(C)C[C@@H]1NC(=O)[C@@H](Cc2ccccc2)NC(=O)[C@H](CCN)NC(=O)[C@@H](NC(=O)[C@H](CCN)NC(=O)[C@@H](NC(=O)[C@H](CCN)NC(=O)Nc2ccccc2Cl)[C@@H](C)O)CCNC(=O)[C@H]([C@@H](C)O)NC(=O)[C@H](CCN)NC(=O)[C@H](CCN)NC1=O [Compound 16] ({NH(2-ClPh)-CO}-[Dab]T[Dab][Dab][Dab][dF]L[Dab][Dab]T; lactam 4-C) |  |  |  |  |  |  |  | > 300
12 | CCCCCC1CCC(C(=O)N[C@H](C(=O)N[C@H](CCN)C(=O)N[C@H]2CCNC(=O)[C@H]([C@@H](C)O)NC(=O)[C@H](CCN)NC(=O)[C@H](CCN)NC(=O)[C@H](CC(C)C)NC(=O)[C@@H](Cc3ccccc3)NC(=O)[C@H](CCN)NC2=O)[C@@H](C)O)CC1 (stereo partly shown) [Compound 24] (X1-T[dDab][Dab][Dab][dF]L[Dab][Dab]T; lactam 3-C) | 32 (≈ 28 µM) | 4 (≈ 3.5 µM) | 4 (≈ 3.5 µM) |  | >32 | 8 (≈ 7 µM) | 4 (≈ 3.5 µM) | 60
